Key:
Substance-P receptor = Substance-P receptor (Homo sapiens, UniProt P25103); assay: Inhibitory activity against human tachykinin receptor 1
Substance-K receptor = biological target: T1, Substance-K receptor (Homo sapiens, UniProt P21452); assay: Inhibitory activity against human tachykinin receptor 2
T1 sequence (P21452 whole entry): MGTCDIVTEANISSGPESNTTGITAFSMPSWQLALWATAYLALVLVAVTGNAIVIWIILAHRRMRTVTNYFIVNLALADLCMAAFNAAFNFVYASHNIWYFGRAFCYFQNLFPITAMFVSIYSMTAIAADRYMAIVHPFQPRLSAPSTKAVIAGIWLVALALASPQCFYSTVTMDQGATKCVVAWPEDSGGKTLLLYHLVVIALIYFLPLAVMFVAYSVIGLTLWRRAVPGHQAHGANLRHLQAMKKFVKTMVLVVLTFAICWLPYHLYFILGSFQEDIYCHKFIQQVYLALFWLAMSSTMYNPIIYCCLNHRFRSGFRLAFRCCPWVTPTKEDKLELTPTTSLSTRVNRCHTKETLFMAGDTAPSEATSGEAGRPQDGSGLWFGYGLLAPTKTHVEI

Sequence of Substance-P receptor (P25103 whole entry): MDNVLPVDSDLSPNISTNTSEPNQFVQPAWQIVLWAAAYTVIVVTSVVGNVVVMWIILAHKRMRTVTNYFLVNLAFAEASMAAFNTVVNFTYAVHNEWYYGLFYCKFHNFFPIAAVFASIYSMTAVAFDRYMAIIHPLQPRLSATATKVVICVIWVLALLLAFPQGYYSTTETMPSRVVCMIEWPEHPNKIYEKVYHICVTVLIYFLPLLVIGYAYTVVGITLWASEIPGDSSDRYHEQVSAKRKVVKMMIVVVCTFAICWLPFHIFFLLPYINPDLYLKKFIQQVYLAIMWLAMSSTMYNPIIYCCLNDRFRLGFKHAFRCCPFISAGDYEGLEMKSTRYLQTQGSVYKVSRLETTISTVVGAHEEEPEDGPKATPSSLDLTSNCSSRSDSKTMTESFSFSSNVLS

| SMILES | Ki (Substance-P receptor) [µM] | Ki (Substance-K receptor) [µM] |
| --- | --- | --- |
| CO/N=C(\COCc1cc(C(F)(F)F)cc(C(F)(F)F)c1)C(CCN1CCN(CC(=O)N2CCCCC2CO)CC1)c1ccc(Cl)c(Cl)c1 (configuration not stated) | 0.047 | 0.052 |
| CO/N=C(\COCc1cc(C(F)(F)F)cc(C(F)(F)F)c1)C(CCN1CCN(CC(=O)NC2CCc3ccccc32)CC1)c1ccc(Cl)c(Cl)c1 (configuration not stated) | 0.136 | > 0.68 |
| CO/N=C(\COCc1cc(C(F)(F)F)cc(C(F)(F)F)c1)C(CCN1CCN(c2ccccc2)CC1)c1ccc(Cl)c(Cl)c1 (configuration not stated) | 0.181 | 0.978 |
| CO/N=C(\COCc1cc(C(F)(F)F)cc(C(F)(F)F)c1)C(CCN1CCN(CC(=O)Nc2ccccc2)CC1)c1ccc(Cl)c(Cl)c1 (configuration not stated) | 0.125 | > 0.68 |
| CO/N=C(\COCc1cc(C(F)(F)F)cc(C(F)(F)F)c1)C(CCN1CCN(c2ncccn2)CC1)c1ccc(Cl)c(Cl)c1 (configuration not stated) | 0.07 | 0.217 |
| CO/N=C(\COCc1cc(C(F)(F)F)cc(C(F)(F)F)c1)C(CCN1CCN(CC(=O)N2CCC(NC(C)=O)C2)CC1)c1ccc(Cl)c(Cl)c1 (configuration not stated) | 0.009 | 0.048 |
| CO/N=C(\COCc1cc(C(F)(F)F)cc(C(F)(F)F)c1)C(CCN1CCN(CC(=O)N2CCC2)CC1)c1ccc(Cl)c(Cl)c1 (configuration not stated) | 0.023 | 0.033 |
| CO/N=C(\COCc1cc(C(F)(F)F)cc(C(F)(F)F)c1)C(CCN1CCN(C)CC1)c1ccc(Cl)c(Cl)c1 (configuration not stated) | 0.061 | 0.2 |
| CO/N=C(\COCc1cc(C(F)(F)F)cc(C(F)(F)F)c1)C(CCN1CCN(CC(=O)N2CCCC2)CC1)c1ccc(Cl)c(Cl)c1 (configuration not stated) | 0.014 | 0.021 |
| CO/N=C(\COCc1cc(C(F)(F)F)cc(C(F)(F)F)c1)C(CCN1CCN(CC(=O)N2CCc3ccccc3C2)CC1)c1ccc(Cl)c(Cl)c1 (configuration not stated) | 0.125 | 0.566 |
| CO/N=C(\COCc1cc(C(F)(F)F)cc(C(F)(F)F)c1)C(CCN1CCN(CC(=O)N2CCC(N(C)C)C2)CC1)c1ccc(Cl)c(Cl)c1 (configuration not stated) | 0.014 | 0.095 |
| CO/N=C(\COCc1cc(C(F)(F)F)cc(C(F)(F)F)c1)C(CCN1CCN(CC(=O)N2CCCCC2)CC1)c1ccc(Cl)c(Cl)c1 (configuration not stated) | 0.082 | 0.208 |
| CO/N=C(\COCc1cc(C(F)(F)F)cc(C(F)(F)F)c1)C(CCN1CCN(CC(=O)N2CCOCC2)CC1)c1ccc(Cl)c(Cl)c1 (configuration not stated) | 0.019 | 0.028 |
| CCOC(=O)C1CCN(C(=O)CN2CCN(CCC(/C(COCc3cc(C(F)(F)F)cc(C(F)(F)F)c3)=N/OC)c3ccc(Cl)c(Cl)c3)CC2)CC1 (configuration not stated) | 0.024 | 0.409 |
| CO/N=C(\COCc1cc(C(F)(F)F)cc(C(F)(F)F)c1)C(CCN1CCN(CC(=O)N2CCCC(O)C2)CC1)c1ccc(Cl)c(Cl)c1 (configuration not stated) | 0.013 | 0.038 |
| CO/N=C(\COCc1cc(C(F)(F)F)cc(C(F)(F)F)c1)C(CCN1CCN(CC(=O)N2CCC(O)C2)CC1)c1ccc(Cl)c(Cl)c1 (configuration not stated) | 0.016 | 0.03 |
| CO/N=C(\COCc1cc(C(F)(F)F)cc(C(F)(F)F)c1)C(CCN1CCN(CC(=O)N2CC(O)C2)CC1)c1ccc(Cl)c(Cl)c1 (configuration not stated) | 0.022 | 0.031 |
| CCOCCCNC(=O)CN1CCN(CCC(/C(COCc2cc(C(F)(F)F)cc(C(F)(F)F)c2)=N/OC)c2ccc(Cl)c(Cl)c2)CC1 (configuration not stated) | 0.039 | 0.382 |
| CO/N=C(\COCc1cc(C(F)(F)F)cc(C(F)(F)F)c1)C(CCN1CCN(CC(=O)N(C(C)C)C(C)C)CC1)c1ccc(Cl)c(Cl)c1 (configuration not stated) | 0.082 | 0.17 |
| CO/N=C(\COCc1cc(C(F)(F)F)cc(C(F)(F)F)c1)C(CCN1CCNCC1)c1ccc(Cl)c(Cl)c1 (configuration not stated) | 0.03 | 0.738 |
| CO/N=C(\COCc1cc(C(F)(F)F)cc(C(F)(F)F)c1)C(CCN1CCN(CC(=O)N2CCCC3CCCCC32)CC1)c1ccc(Cl)c(Cl)c1 (configuration not stated) | 0.136 | 0.477 |
| CO/N=C(\COCc1cc(C(F)(F)F)cc(C(F)(F)F)c1)C(CCN1CCN(CC(=O)N(C)C2CCCCC2)CC1)c1ccc(Cl)c(Cl)c1 (configuration not stated) | 0.113 | 0.368 |
| CO/N=C(\COCc1cc(C(F)(F)F)cc(C(F)(F)F)c1)C(CCN1CCN(CC(=O)NC2CC2)CC1)c1ccc(Cl)c(Cl)c1 (configuration not stated) | 0.062 | 0.259 |
| CO/N=C(\COCc1cc(C(F)(F)F)cc(C(F)(F)F)c1)C(CCN1CCN(CC(=O)N2CCC[C@H]2C(N)=O)CC1)c1ccc(Cl)c(Cl)c1 (some centres not stated) | 0.024 | 0.026 |
| CO/N=C(\COCc1cc(C(F)(F)F)cc(C(F)(F)F)c1)C(CCN1CCN(CC(=O)NCC2CCCO2)CC1)c1ccc(Cl)c(Cl)c1 (configuration not stated) | 0.02 | 0.266 |
| CO/N=C(\COCc1cc(C(F)(F)F)cc(C(F)(F)F)c1)C(CCN1CCN(C2CCCCC2)CC1)c1ccc(Cl)c(Cl)c1 (configuration not stated) | 0.053 | 0.128 |
